Columns and labels:
[1] = Tested for inhibitory activity against UDP-N-acetylmuramoyl-L-alanine synthetase from Escherichia coli by malachite green assay
[2] = Tested for inhibitory activity against UDP-N-acetylmuramoyl-L-alanine synthetase from Escherichia coli by malachite green assay; Inactive

Row | Structure (SMILES) | IC50 [1] | IC50 [2]
1 | CC(=O)N[C@H]1C(OP(=O)(O)OP(=O)(O)OC[C@H]2O[C@@H](n3ccc(=O)[nH]c3=O)[C@H](O)[C@@H]2O)O[C@H](CO)[C@@H](O)[C@@H]1OCP(=O)(O)CC(C)C(=O)O (some centres undefined) | 0.049 µM | –
2 | CC(CP(=O)(O)COCCCOP(=O)(O)O)C(=O)O (centres undefined) | – | Not Active
3 | CC(CP(=O)(O)COCCCOP(=O)(O)OP(=O)(O)OC[C@H]1O[C@@H](n2ccc(=O)[nH]c2=O)[C@H](O)[C@@H]1O)C(=O)O (some centres undefined) | 60 µM | –
4 | CC(=O)N[C@H]1[C@@H](OP(=O)(O)O)O[C@H](CO)[C@@H](O)[C@@H]1OCP(=O)(O)CC(C)C(=O)O (some centres undefined) | > 100 µM | –

— ChEMBL document CHEMBL1134087, “Inhibitors of the bacterial cell wall biosynthesis enzyme MurC” (Bioorg Med Chem Lett, 2001)
